One data set relates to Bacillus cereus RFB125. The data set can be described thus: MIC, microdilution (CLSI). Format: cell-based. The conditions noted are these: clinical isolate; LB medium, 37 °C, 24-well plates, seeded at OD600 0.1, 24 h, amylolysin 0.1-2.8 µM, OD600 read-out, triplicate. The method, then:
(§1) Minimal inhibitory concentration (MIC) was determined for an array of bacterial and yeast strains by a microdilution method following the Clinical and Laboratory Standard Institute (CLSI) recommended procedure. Briefly, the different indicator strains were aerobically grown in 24-wells culture plates in the presence of purified amylolysin at concentration ranging from 0.1 to 2.8 µM in the appropriate medium and temperature conditions as stipulated in table 1. Each well was seeded at an OD600 of 0.1. After 24 h of incubation, cell growth was estimated based on OD600 measurements. The MIC values were defined as the lowest amylolysin concentration that is able to inhibit cell growth. Each experiment was performed in triplicate.
In general terms: In broth dilution the organism is exposed to a series of concentrations in liquid medium.

The test system of data set [1] is Bacillus megaterium RFB124. The data set can be described thus: MIC, microdilution (CLSI). The settings on record: LB medium, 37 °C, 24-well plates, seeded at OD600 0.1, 24 h, amylolysin 0.1-2.8 µM, OD600 read-out, triplicate. The data set is classed as cell-based. The method, then:
as §1

For data set [2], the system named is Bacillus subtilis ATCC 6633. The data set can be described thus: MIC, microdilution (CLSI). The settings on record: LB medium, 37 °C, 24-well plates, seeded at OD600 0.1, 24 h, amylolysin 0.1-2.8 µM, OD600 read-out, triplicate. Format: cell-based. The method, then: as §1
Data set [3] concerns Enterococcus faecalis ATCC 29212. Nature of the data set: MIC, microdilution (CLSI). The data set is classed as cell-based. The conditions noted are these: BH medium, 37 °C, 24-well plates, seeded at OD600 0.1, 24 h, amylolysin 0.1-2.8 µM, OD600 read-out, triplicate. The method, then:
as §1

The subject of data set [4] is Enterococcus faecalis RFB129. The data set can be described thus: MIC, microdilution (CLSI). Format: cell-based. The conditions noted are these: clinical isolate; BH medium, 37 °C, 24-well plates, seeded at OD600 0.1, 24 h, amylolysin 0.1-2.8 µM, OD600 read-out, triplicate. The method, then: as §1
In data set [5] the test system is Enterococcus faecium RFB128. The data set can be described thus: MIC, microdilution (CLSI). The data set is classed as cell-based. The settings on record: lab stock; BH medium, 37 °C, 24-well plates, seeded at OD600 0.1, 24 h, amylolysin 0.1-2.8 µM, OD600 read-out, triplicate. How it is done:
as §1

Data set [6] has as its system Lactobacillus plantarum RFB138. Nature of the data set: MIC, microdilution (CLSI). Format: cell-based. The settings on record: lab stock; MRS medium, 27 °C, 24-well plates, seeded at OD600 0.1, 24 h, amylolysin 0.1-2.8 µM, OD600 read-out, triplicate. How it is done:
as §1

The test system of data set [7] is Listeria innocua ATCC33090. Nature of the data set: MIC, microdilution (CLSI). The conditions noted are these: BH medium, 37 °C, 24-well plates, seeded at OD600 0.1, 24 h, amylolysin 0.1-2.8 µM, OD600 read-out, triplicate. The data set is classed as cell-based. The method, then:
as §1

Another data set relates to Listeria innocua RFB159. Nature of the data set: MIC, microdilution (CLSI). The conditions noted are these: clinical isolate; BH medium, 37 °C, 24-well plates, seeded at OD600 0.1, 24 h, amylolysin 0.1-2.8 µM, OD600 read-out, triplicate. The data set is classed as cell-based. The method, then:
as §1

The test system of the next data set is Listeria ivanovii RFB160. Nature of the data set: MIC, microdilution (CLSI). The settings on record: BH medium, 37 °C, 24-well plates, seeded at OD600 0.1, 24 h, amylolysin 0.1-2.8 µM, OD600 read-out, triplicate. The data set is classed as cell-based. How it is done: as §1
Data set [8] relates to Listeria monocytogenes LM2234. The data set can be described thus: MIC, microdilution (CLSI). The data set is classed as cell-based. The conditions noted are these: clinical isolate; BH medium, 37 °C, 24-well plates, seeded at OD600 0.1, 24 h, amylolysin 0.1-2.8 µM, OD600 read-out, triplicate. The method, then:
as §1

The test system of data set [9] is Listeria monocytogenes LMG 21263. The data set can be described thus: MIC, microdilution (CLSI). Format: cell-based. The settings on record: BH medium, 37 °C, 24-well plates, seeded at OD600 0.1, 24 h, amylolysin 0.1-2.8 µM, OD600 read-out, triplicate. The method, then:
as §1

For data set [10], the system named is Listeria monocytogenes LMG 23905. Nature of the data set: MIC, microdilution (CLSI). Format: cell-based. The settings on record: BH medium, 37 °C, 24-well plates, seeded at OD600 0.1, 24 h, amylolysin 0.1-2.8 µM, OD600 read-out, triplicate. The method, then: as §1
Data set [11] relates to Micrococcus luteus ATCC 9341. The data set can be described thus: MIC, microdilution (CLSI). Format: cell-based. The conditions noted are these: BH medium, 37 °C, 24-well plates, seeded at OD600 0.1, 24 h, amylolysin 0.1-2.8 µM, OD600 read-out, triplicate. The method, then: as §1
Data set [12] relates to Staphylococcus aureus ATCC 25923. Nature of the data set: MIC, microdilution (CLSI). The settings on record: BH medium, 37 °C, 24-well plates, seeded at OD600 0.1, 24 h, amylolysin 0.1-2.8 µM, OD600 read-out, triplicate. The data set is classed as cell-based. How it is done:
as §1

In data set [13] the test system is Staphylococcus aureus ATCC 43300 (methicillin resistant). Nature of the data set: MIC, microdilution (CLSI). Format: cell-based. The conditions noted are these: methicillin resistant strain; BH medium, 37 °C, 24-well plates, seeded at OD600 0.1, 24 h, amylolysin 0.1-2.8 µM, OD600 read-out, triplicate. The method, then: as §1
Data set [14] has as its system Staphylococcus aureus RFB127. The data set can be described thus: MIC, microdilution (CLSI). The conditions noted are these: lab stock; BH medium, 37 °C, 24-well plates, seeded at OD600 0.1, 24 h, amylolysin 0.1-2.8 µM, OD600 read-out, triplicate. Format: cell-based. The method, then:
as §1

For data set [15], the system named is Staphylococcus epidermis ATCC 1228. The data set can be described thus: MIC, microdilution (CLSI). The settings on record: BH medium, 37 °C, 24-well plates, seeded at OD600 0.1, 24 h, amylolysin 0.1-2.8 µM, OD600 read-out, triplicate. Format: cell-based. The method, then:
as §1

Data set [16] relates to Streptococcus agalactiae RFB141. Nature of the data set: MIC, microdilution (CLSI). Format: cell-based. The conditions noted are these: clinical isolate; BH medium, 37 °C, 24-well plates, seeded at OD600 0.1, 24 h, amylolysin 0.1-2.8 µM, OD600 read-out, triplicate. How it is done: as §1
Another data set deals with Weissella sp RFB139. The data set can be described thus: MIC, microdilution (CLSI). Format: cell-based. The conditions noted are these: lab stock; MRS medium, 27 °C, 24-well plates, seeded at OD600 0.1, 24 h, amylolysin 0.1-2.8 µM, OD600 read-out, triplicate. The method, then:
as §1

Data set [17] has as its system L. monocytogenes (three clinical or food isolates). Nature of the data set: MIC, microdilution (CLSI), summary for three isolates. The conditions noted are these: summary value of the text for the three L. monocytogenes isolates tested; BH medium, 37 °C, 24 h, triplicate. Format: cell-based, Listeria monocytogenes. How it is done:
as §1

Data set [18] is classed as physicochemical. The conditions noted are these: agar diffusion, M. luteus ATCC 9341. The method, then:
To evaluate sensitivity to proteases, purified amylolysin samples were quantified by RP-HPLC after 24h of incubation at 37°C with proteinase K and pronase (10 µg/ml, Sigma-Aldrich). Heat stability was evaluated after incubation for 60 min at various temperatures (25, 55, 65, 75 and 100 °C) whereas pH sensitivity was evaluated after a 1h-incubation in 200 mM HCl/KCl buffer (pH 2-3), acetate buffer (pH 4-6) and Tris buffer (pH 7-9). After those treatments, the remaining amylolysin activity was determined using the agar diffusion assays as described elsewhere, using Micrococcus luteus ATCC 9341 as an indicator strain.
Background: In agar diffusion tests the substance spreads into inoculated agar from a disc or well.

The nature of data set [19]: Direct interaction with [14C] lipid II, TLC migration. The data set is classed as binding. The settings on record: [14C] lipid II 2.5 µM, amylolysin 0.2 µM, DMSO/1-octanol 60/40 v/v, 1 hour, room temperature, Molecular Imager FX. The method, then:
(§2) Radiolabelled UDP-MurNac-pentapeptide, thereafter [^14C] lipid II, was prepared in vitro using E. coli K12 purified membrane from UDP-GlcNac and UDP-MurNAc-L-Ala-D-Glu-meso-DAP-D-[^14C]Ala-D-[^14C]Ala and subsequently purified as previously described. Inhibition of glycosyl transferase reaction was performed as described elsewhere with some modifications. Briefly, [^14C] lipid II (2.5µM; 0.125µCi nmol^-1), amylolysin (0.2 µM), His-tag PBP1bγ from E. coli (15 nM) were incubated in 25mM Tris-HCl (pH7,5), 0,5 % decyl PEG, 10 mM MgCl2, 12% 1-octanol, 25 % DMSO for 1 hour at 30 °C. The reaction products were separated by thin layer chromatography (TLC) on silica plate (SilG, […], Macherey-Nagel, Duren, Germany) using a mixture of methanol/chloroform/ammoniac/water (88/48/10/1, v/v/v/v) as mobile phase. For interaction experiment, [^14C] lipid II (2.5 µM; 0.125µCinmol^-1) and amylolysin (0.2 µM) were incubated in DMSO/1-octanol mixture (60/40 v/v) for 1 hour at room temperature before being subjected to TCL using a butanol/acetic acid/pyridine/water mixture (15/3/12/10, v/v/v/v) as mobile phase. The radioactive compounds were detected and analyzed with a Molecular Imager FX system (Biorad Laboratories).

Data set [20] has as its system His-tag PBP1bγ from E. coli. Nature of the data set: Inhibition of the transglycosylation (glycosyl transferase) reaction, TLC of [14C] lipid II. The conditions noted are these: [14C] lipid II 2.5 µM, amylolysin 0.2 µM, PBP1bγ 15 nM, 25 mM Tris-HCl pH 7.5, 0.5 % decyl PEG, 10 mM MgCl2, 12% 1-octanol, 25 % DMSO, 1 hour, 30 °C. The data set is classed as biochemical. How it is done:
as §2

A further data set relates to meat proteases. The settings on record: cited from earlier work. The source says: (§3) The majority of the bacteriocins described to date are from lactic bacteria with nisin, used commercially in many countries as preservative in food products, being the best characterized compound. […] In regards to their high level of protease production, Bacillus sp. has been considered as interesting alternative source for antimicrobial peptides with increased protease tolerance. In our laboratory, B. amyloliquefaciens ...

For data set [21] the following is noted: above pH 6; cited from earlier work.
Source text: as §3

Like-named read-outs stand apart in the source and are kept apart here. Where only a bound is given, the exact number is not on record here.

As usually defined, the MIC is the lowest concentration that inhibits growth of the organism. amylolysin: the MIC stood at 0.2 µM with Bacillus cereus RFB125; 0.4 µM in [1]; 1.4 µM in data set [2]; 1.4 µM in [3]; 0.7 µM in data set [4]; 0.1 µM in [5]. Also, the minimum inhibitory concentration (MIC) in [6] is over 2.8 µM; in data set [7], 0.7 µM; with Listeria innocua RFB159, 0.7 µM; in the data set on Listeria ivanovii RFB160, 0.8 µM; in data set [8] it was 0.4 µM; in data set [9], 0.5 µM. Besides, the MIC in [10] turned out to be 0.4 µM; in data set [11], 0.7 µM; in data set [12] it was 2.8 µM; in [13] it was 0.4 µM; in [14] it was 1.4 µM; in [15] it was 2.8 µM. Further, the results for the MIC (in data set [16]; in the data set on Weissella sp RFB139; in data set [17]) were 2.8 µM, 2.8 µM and about 0.5 µM, respectively. Further, the “reduction of biological activity” value in [18] (100 °C for 1 hour) was 7%. The antimicrobial activity reduction in data set [18] (acidic condition, pH 2, 1 h) is on record as 11%; in data set [18] (alkaline condition, pH 9, 1 h), 7%. In addition, the “direct amylolysin-lipid II interaction (delay of migration of the complex on TLC)” value in data set [19] is recorded as “direct interaction between the two partners”. Also, in data set [20], the “inhibition of the transglycosylation reaction (lipid II polymerisation)” value is “Inhibition of the transglycosylation reaction”. In addition, the “sensitivity to meat proteases” value in the data set with meat proteases was “less sensitive to meat proteases than nisin”.

For the substance nisin, the solubility result in data set [21] is given as “low solubility above pH 6”.

The record behind these values is paper PMC3857288, “Characterization of Amylolysin, a Novel Lantibiotic from Bacillus amyloliquefaciens GA1” (PLoS ONE, 2013).
